Assay results published in US20190241864A1, “Composition Comprising Non-Germinant and Bacterial Spores” (NOVOZYMES BIOAG A/S, priority 2016, published 2019).

How the values were obtained:
[1] = tested on: spores from Bacillus pumilus strain SB3189; test: Germinant testing of heat-activated spores, decrease in relative OD580; type: cell-based; settings: 3 mM
[2] = tested on: spores from Bacillus amyloliquefaciens strain SB3615; test: as above; settings: substance alone, 3 mM; 37° C., 70 minutes
[3] = tested on: spores from Bacillus megaterium strain SB3112; test: as above; type: cell-based; settings: Example 2 studies, 3 mM
[4] = tested on: Bacillus megaterium strain SB3112 spores; test: Spore germination by DPA release after L-asparagine treatment; type: cell-based; settings: for Gmax: mean of 3
[5] = tested on: Bacillus pumilus strain SB3189 spores; test: Spore germination by dipicolinic acid (DPA) release (Tb-DPA fluorescence) after L-valine treatment; type: cell-based; settings: for Gmax: then 10 mM AAGFK, mean of 3
Experimental: This was performed three consecutive times.
Germination of spores in these studies was determined by measuring dipicolinic acid (DPA). DPA is about 10% of the mass of endospores, all of which is generally released when germination is triggered. Boiling spores generally releases all of the DPA. DPA release was detected using terbium chloride (TbCl3), as described below.
To perform the germination assays, 30 μl of spores were added to wells of a 96-well flat-bottom microtiter plate. Subsequently, 35 μl of a 250 μM TbCl3 stock was added. At time 0, 85 μl of a 10 mM L-alanine+10 mM AGFK (10 mM AGFK is 10 mM each of L-asparagine, D-glucose, D-fructose, and KCl) (10 mM AAGFK) was added. […] Tb-DPA is excited at 270 nm and emits at 545 nm. All experimental samples were tested in triplicate. Baseline controls for each sample were generated by omitting L-alanine and these were performed in duplicate. All sample wells were measured immediately after […] was added (time 0) and then over time. For each time point, the data were normalized to values for the spores that had been boiled for two hours to force 100% release of DPA from the spores.

## O=C(CO)[C@@H](O)[C@H](O)[C@H](O)CO [D-fructose]
[1]
  germination of spores by substance alone: None of L-alanine, L-cysteine, D-fructose, or sucrose alone, at a concentration of 3 mM, caused germination

## C[C@H](N)C(=O)O [L-alanine]
[1]
  germination of spores by substance alone: None of L-alanine, L-cysteine, D-fructose, or sucrose alone, at a concentration of 3 mM, caused germination
[2]
  germination of spores: could cause germination

## NC(=O)C[C@H](N)C(=O)O [L-asparagine]
[3]
  germinant behavior: not shown to have germinant behavior
[4]; 4° C., native and heat-activated spores, all tested concentrations
  Gmax compared to spores not pretreated with L-asparagine: increased Gmax
[4]; 22° C., 3.0 mM, both native and heat-activated spores
  Gmax compared to spores not pretreated with L-asparagine: increased Gmax
[4]; 22° C., 10 mM, native spores
  Gmax compared to spores not pretreated with L-asparagine: also increased Gmax
[4]; heat activated spores, 0.5 mM L-asparagine overnight at 4° C.
  Gmax: 106%
[4]; heat activated spores, 0.5 mM L-asparagine overnight at 22° C.
  Gmax: 81%
[4]; heat activated spores, 3.0 mM L-asparagine overnight at 4° C.
  Gmax: 109%
[4]; heat activated spores, 3.0 mM L-asparagine overnight at 22° C.
  Gmax: 102%
[4]; heat activated spores, 10.0 mM L-asparagine overnight at 4° C.
  Gmax: 114%
[4]; heat activated spores, 10.0 mM L-asparagine overnight at 22° C.
  Gmax: 79%
[4]; native spores, 0.5 mM L-asparagine overnight at 4° C.
  Gmax: 29%
[4]; native spores, 0.5 mM L-asparagine overnight at 22° C.
  Gmax: 56%
[4]; native spores, 3.0 mM L-asparagine overnight at 4° C.
  Gmax: 28%
[4]; native spores, 3.0 mM L-asparagine overnight at 22° C.
  Gmax: 100%
[4]; native spores, 10.0 mM L-asparagine overnight at 4° C.
  Gmax: 29%
[4]; native spores, 10.0 mM L-asparagine overnight at 22° C.
  Gmax: 81%

## N[C@@H](CS)C(=O)O [L-cysteine]
[1]
  germination of spores by substance alone: None of L-alanine, L-cysteine, D-fructose, or sucrose alone, at a concentration of 3 mM, caused germination

## CC(C)[C@H](N)C(=O)O [L-valine]
[1]; tested in combination with individual sugars, and in combination with salts
  germinant activity: did not show germinant activity
[5]; 0.5 mM L-valine 24 hours at 4° C.
  Gmax: 74%
[5]; 0.5 mM L-valine 24 hours at 22° C.
  Gmax: 6%
[5]; 0.5 mM L-valine at 22° C.
  change of Gmax: the Gmax decreased
[5]; 3.0 mM L-valine 24 hours at 4° C.
  Gmax: 70%
[5]; 3.0 mM L-valine 24 hours at 22° C.
  Gmax: 43%
[5]; 3.0 mM L-valine at 22° C.
  increase in Gmax compared to the control that did not contain L-valine: ~3 fold
[5]; 10.0 mM L-valine 24 hours at 4° C.
  Gmax: 76%
[5]; 10.0 mM L-valine 24 hours at 22° C.
  Gmax: 77%
[5]; 10.0 mM L-valine at 22° C.
  increase in Gmax compared to the control that did not contain L-valine: ~5 fold
[5]; L-valine 0.5-10.0 mM, 4° C. and 22° C.
  change of Tlag: Tlag was not changed
[5]; L-valine incubated with spores at 4° C.
  effects on germination parameters: small effects on germination parameters

## OC[C@H]1O[C@@](CO)(O[C@H]2O[C@H](CO)[C@@H](O)[C@H](O)[C@H]2O)[C@@H](O)[C@@H]1O [sucrose]
[1]
  germination of spores by substance alone: None of L-alanine, L-cysteine, D-fructose, or sucrose alone, at a concentration of 3 mM, caused germination
